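48-hour exposure; five concentrations; linearly interpolated endpoints. GI50 = concentration required for 50% inhibition of growth. Definition used: TGI = concentration required for complete inhibition of growth.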
What was measured:
Experiment in all cases: NCI anticancer screen, dose series, 48 h
[1] = test system: DU-145 prostate
[2] = test system: KM12 colon
[3] = test system: OVCAR-5 ovarian
[4] = test system: OVCAR-8 ovarian
[5] = test system: PC-3 prostate
[6] = test system: RXF 393 renal
[7] = test system: SK-MEL-2 melanoma
[8] = test system: SK-MEL-28 melanoma
[9] = test system: SR leukemia
[10] = test system: MDA-N

Row | SMILES | TGI [1] [µM] | TGI [2] [µM] | TGI [3] [µM] | TGI [4] [µM] | TGI [5] [µM] | TGI [6] [µM] | TGI [7] [µM] | TGI [8] [µM] | TGI [9] [µM] | TGI [10] [µM] | GI50 [1] [µM] | GI50 [2] [µM] | GI50 [3] [µM] | GI50 [4] [µM] | GI50 [6] [µM] | GI50 [7] [µM] | GI50 [8] [µM] | GI50 [9] [µM] | GI50 [5] [µM]
1 | COc1ccc(/C=N/Nc2[nH]c(=S)nc3[nH]ncc23)cc1 | > 100 | > 100 | > 100 | > 100 | > 100 | > 100 | > 100 | > 100 | > 100 |  |  |  |  |  |  |  |  |  | 
2 | COc1cc(N=Nc2cccc(S(=O)(=O)O)c2)c(C)cc1N=Nc1ccc(/C=C/c2ccc(N=[N+]([O-])c3ccc(/C=C/c4ccc(N=Nc5cc(C)c(N=Nc6cccc(S(=O)(=O)O)c6)cc5OC)cc4)c(S(=O)(=O)O)c3)cc2S(=O)(=O)O)cc1 |  | > 100 | > 100 | > 100 |  | > 100 | > 100 | > 100 |  |  |  |  |  |  |  |  |  |  | 
3 | Cc1ncc([N+](=O)[O-])n1CCN=[N+]=[N-] | > 100 | > 100 | > 100 | > 100 | > 100 | > 100 | > 100 | > 100 | > 100 | > 100 |  |  |  |  |  |  |  |  | 
4 | COc1ccccc1C1C(C#N)=C(N)OC2=C1C(=O)CCC2 (stereo not drawn) | > 100 | > 100 | > 100 | > 100 |  | > 100 | > 100 | > 100 | > 100 |  | > 100 | > 100 | > 100 | > 100 | > 100 | > 100 | > 100 | 14.2 | 
5 | COc1cc(C2C(Cl)C(=O)N2c2ccc(Br)cc2)cc(I)c1O (stereo not drawn) | > 100 | > 100 | > 100 | > 100 | > 100 |  | > 100 |  | > 100 | > 100 |  |  |  |  |  |  |  |  | 
6 | O=S1(=O)NNC(=NCc2ccc(F)cc2)c2ccccc21 | > 100 | > 100 | > 100 | > 100 |  | > 69.3 | > 100 | > 100 | > 68.8 | > 100 |  |  |  |  |  |  |  |  | 
7 | NC(N)=N/N=C(\c1ccc(Cl)cc1)C1CC1 | 57.4 | 35.8 | 39.3 | 40.4 | 34.9 | > 100 | 34.5 | 38.2 | 29.1 | 30.8 |  |  |  |  |  |  |  |  | 
8 | C=C1C(=O)O[C@H]2C1[C@H](OC(=O)/C(C)=C\COC(C)=O)C[C@]1(CO1)[C@@H]1[C@H](O)[C@H]3O[C@@]3(C)[C@@H]12 (stereo partly drawn) |  | 29.5 | > 100 | 99.5 |  | 32.9 | 48.8 | 31.7 |  |  |  |  |  |  |  |  |  |  | 
9 | COc1ccc(CNc2nc(NCc3ccc(OC)cc3)nc(NC3CCCCC3)n2)cc1 | 6.88 | 5.47 | > 100 | 7.17 | > 100 |  | 7.86 | > 100 | > 100 | > 100 |  |  |  |  |  |  |  |  | 
10 | COc1cc(S(=O)(=O)Nc2nc(-c3ccc(N4C(=O)/C(=C/c5ccccc5)N=C4c4ccccc4)cc3)cs2)ccc1Cl | > 100 | > 100 | > 100 | > 100 | > 100 | 91.7 | 84.8 | > 100 | > 100 | > 100 |  |  |  |  |  |  |  |  | 
11 | CCOC(=O)/C=C1\Nc2ccccc2C12CCc1c([nH]c3ccccc13)C2C(=O)OCC (stereo not drawn) | > 100 | > 100 | > 100 | > 100 | > 100 | > 100 | > 100 | > 100 | > 100 | 81 |  |  |  |  |  |  |  |  | 
12 | COC(=O)C(C)N1C(=O)c2ccccc2I1OC(C)=O (stereo not drawn) | > 100 | > 100 | > 100 | > 100 | > 100 | > 100 | > 100 | > 100 | 49.2 |  | > 100 | > 100 | > 100 | > 100 | 32.3 | > 100 | 88 | 19.7 | > 100
13 | CCCCc1ccc2[n+](c1)C(C(=O)OCC)=PC2 (stereo not drawn) | > 100 | > 100 | > 100 | > 100 | > 100 | > 100 |  | > 100 | > 100 | > 100 |  |  |  |  |  |  |  |  | 
14 | CC(C)=CCN(N=O)c1ncnc2nc[nH]c12 | > 100 | > 100 | > 100 | > 100 | > 100 | > 100 |  | > 100 | > 100 | > 100 |  |  |  |  |  |  |  |  | 
15 | CCOC(=O)c1c2c(n(C)c1-c1ccccc1)C(=O)C(C)=CC2=O | 35.2 | 22.5 | 19.6 | 15.4 | 25.5 | 23.6 | 31.1 | 27.8 | 9.39 | 4.08 |  |  |  |  |  |  |  |  | 
16 | CC(C)(C)OC(=O)NC(Cc1ccccc1)C(=O)N[C@H]1c2ccsc2/C(=N/O)[C@H]1O (stereo partly drawn) | > 100 |  | > 100 | > 100 | > 100 | > 100 | > 100 |  | > 100 | > 100 |  |  |  |  |  |  |  |  | 
17 | O=C1c2ccccc2-c2ccc(NC(=O)C3CCCCC3C(=O)O)cc21 (stereo not drawn) | > 100 | > 100 | > 100 | > 100 | > 100 | > 100 | > 100 | > 100 | > 100 | > 100 |  |  |  |  |  |  |  |  | 
18 | O=CNc1cccc2c3c([nH]c12)CCCCCC3 |  | > 100 | > 100 | > 100 |  | > 100 | > 100 | > 100 |  |  |  |  |  |  |  |  |  |  | 
19 | CCOC(=O)C1C(c2cc(OC)c(O)c(OC)c2)c2cc3c(cc2OC1(C)O)OCO3 (stereo not drawn) |  |  |  | > 100 |  |  | > 100 | > 100 |  |  |  |  |  |  |  |  |  |  | 
20 | Cc1cc(NS(=O)(=O)c2ccc(Nc3c4ccccc4nc4c(C(=O)NCCN(C)C)ccc(Cl)c34)cc2)no1 |  | 19.3 | 28.5 | 14 |  | 22.8 | 19.7 | 16.1 | 10.8 |  |  |  |  |  |  |  |  |  | 
